Data published in ChEMBL document CHEMBL5726504, “Substituted cyclopentanes, tetrahydrofuranes and pyrrolidines as orexin receptor antagonists” (2017).

Molecular target: T1, Orexin/Hypocretin receptor type 1 (Homo sapiens, UniProt O43613)
T1 sequence (O43613 whole entry): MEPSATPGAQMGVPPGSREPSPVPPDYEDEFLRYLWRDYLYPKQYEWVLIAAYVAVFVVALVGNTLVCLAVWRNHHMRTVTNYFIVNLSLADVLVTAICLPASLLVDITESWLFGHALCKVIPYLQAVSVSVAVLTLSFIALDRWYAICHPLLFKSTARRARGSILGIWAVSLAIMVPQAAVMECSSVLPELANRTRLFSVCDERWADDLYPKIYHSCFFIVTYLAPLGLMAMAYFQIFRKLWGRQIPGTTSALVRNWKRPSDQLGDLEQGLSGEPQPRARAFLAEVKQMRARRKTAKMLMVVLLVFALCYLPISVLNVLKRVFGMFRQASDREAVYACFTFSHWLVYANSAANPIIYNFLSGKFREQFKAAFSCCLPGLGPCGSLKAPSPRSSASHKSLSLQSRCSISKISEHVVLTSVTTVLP
Experiment: FLIPR Assay: Orexin antagonist activity was determined by measuring changes in intracellular calcium levels using a Ca2+ sensitive fluorescent dye. The changes in fluorescent signal were monitored by Fluorescent Imaging Plate Reader (FLIPR) technology available from Molecular Devices, LLC, U.S.A. Orexin mediated increases in intracellular Ca2+ concentration were readily detected upon activation with orexin-A. Twenty-four hours prior to the assay, RBL-2H3 cells stably expressing either human orexin receptor 1 or human orexin receptor 2 were seeded in cell culture medium in black, clear-bottom 384-well plates (commercially available from Corning Inc., U.S.A.) and grown overnight at 37° C., 5% CO2. On the day of the assay, cell culture media was removed and cells were loaded with Calcium 5 Dye (commercially sold by Molecular Devices, LLC, U.S.A.) for 1 hour at 37° C., 5% CO2. Test compounds (at 10 point half log concentration response curves from 10 uM) were added to cells for 15 minutes prior to the addition of orexin-A to all wells, to achieve a final concentration that produces approximately an 80% maximal response.
Assay type: cell-based

In the case of `COc1ccc(Br)nc1C(=O)N[C@H]1CCC[C@@H]1Nc1nc2ccc(F)cc2s1`, the IC50 is reported as 128 nM.
